PubChem BioAssay (NCI)
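Step 1: Grow cells in 96-well plates. Step 2: Expose to compound for 48 hours at 5 concentrations. Step 3: Interpolate endpoints linearly; if unreached, use highest concentration. The concentration for 50% growth inhibition is given as GI50. Definition used: TGI = concentration required for complete inhibition of growth.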

Columns and labels:
Assay in all cases: growth of human tumour cells (NCI), 48 h
OVCAR-5 ovarian = tested on: OVCAR-5 ovarian
MCF7 breast = tested on: MCF7 breast
HOP-92 NSCLC = tested on: HOP-92 NSCLC
SK-MEL-2 melanoma = tested on: SK-MEL-2 melanoma
SNB-75 CNS = tested on: SNB-75 CNS
SF-539 CNS = tested on: SF-539 CNS
EKVX NSCLC = tested on: EKVX NSCLC
M14 melanoma = tested on: M14 melanoma
ACHN renal = tested on: ACHN renal
HT29 colon = tested on: HT29 colon
T-47D breast = tested on: T-47D breast
A498 renal = tested on: A498 renal
SN12C renal = tested on: SN12C renal
SNB-19 CNS = tested on: SNB-19 CNS
MDA-MB-435 = tested on: MDA-MB-435
HOP-62 NSCLC = tested on: HOP-62 NSCLC
SK-OV-3 ovarian = tested on: SK-OV-3 ovarian
SF-268 CNS = tested on: SF-268 CNS
HS 578T breast = tested on: HS 578T breast
K-562 leukemia = tested on: K-562 leukemia
RXF 393 renal = tested on: RXF 393 renal
LOX IMVI melanoma = tested on: LOX IMVI melanoma
UO-31 renal = tested on: UO-31 renal
SK-MEL-5 melanoma = tested on: SK-MEL-5 melanoma
CAKI-1 renal = tested on: CAKI-1 renal
CCRF-CEM leukemia = tested on: CCRF-CEM leukemia
KM12 colon = tested on: KM12 colon
U251 CNS = tested on: U251 CNS

## Cc1ccccc1OCC(O)CN1CCN(c2ccc(Cl)cc2)CC1 (stereo unspecified)
OVCAR-5 ovarian
  GI50: 17.4 µM
  TGI: 34.5 µM
MCF7 breast
  GI50: 16.9 µM
  TGI: 31.5 µM
HOP-92 NSCLC
  GI50: 10 µM
  TGI: 22 µM
SK-MEL-2 melanoma
  GI50: 18.7 µM
  TGI: 35 µM
SNB-75 CNS
  GI50: 15.4 µM
  TGI: 31 µM
SF-539 CNS
  GI50: 19.5 µM
  TGI: 36.5 µM
EKVX NSCLC
  GI50: 13.7 µM
  TGI: 30.9 µM
M14 melanoma
  GI50: 17 µM
  TGI: 34.6 µM
ACHN renal
  GI50: 18.8 µM
  TGI: 42.2 µM
HT29 colon
  GI50: 14.5 µM
  TGI: 29.2 µM
T-47D breast
  GI50: 18.5 µM
  TGI: 47.3 µM
A498 renal
  GI50: 11.9 µM
  TGI: 24.6 µM
SN12C renal
  GI50: 16 µM
  TGI: 30.8 µM
SNB-19 CNS
  GI50: 17.6 µM
  TGI: 35.5 µM
MDA-MB-435
  GI50: 14.4 µM
  TGI: 28.8 µM
HOP-62 NSCLC
  GI50: 15.9 µM
  TGI: 32.3 µM
SK-OV-3 ovarian
  GI50: 21.2 µM
  TGI: 53.8 µM
SF-268 CNS
  GI50: 17.4 µM
  TGI: 34.3 µM
HS 578T breast
  GI50: 21.4 µM
  TGI: 68.7 µM
K-562 leukemia
  GI50: 10.6 µM
  TGI: 30.7 µM
RXF 393 renal
  GI50: 20.2 µM
  TGI: 37.8 µM
LOX IMVI melanoma
  GI50: 15.3 µM
  TGI: 31.3 µM
UO-31 renal
  GI50: 6.75 µM
  TGI: 20.8 µM
SK-MEL-5 melanoma
  GI50: 16.3 µM
  TGI: 30.2 µM
CAKI-1 renal
  GI50: 12.5 µM
  TGI: 26.6 µM
CCRF-CEM leukemia
  GI50: 16.4 µM
  TGI: 44.1 µM
KM12 colon
  GI50: 17.8 µM
  TGI: 36.9 µM
U251 CNS
  GI50: 18.7 µM
  TGI: 33.7 µM
